# From US20100093001A1 (priority 2006, published 2010)
# Experimental for neuronal cells: Amyloid-beta-42 was incubated for one week at 1 mg/mL in 50mM Tris-HCl pH 7.4 and controlled the presence of amyloid-beta-42 fibers by electron microscopy. These mature amyloid-beta-42 (Aβ42) fibers were subsequently harvested by centrifugation and added to primary hippocampal mouse neurons and differentiated N2A cells at a final concentration of 5 μM.
Substance,cytotoxicity (primary neurons),N. Red (neutral red incorporation) (neuronal cells)
H-STVIIE-OH [NH2—STVIIE—COOH],dramatic cytotoxicity,
ganglioside GM1,,36.1 ± 2.9
H-ISFLIF-OH [NH2—ISFLIF—COOH],dramatic cytotoxicity,
H-KVQIIN-OH [NH2—KVQIIN—COOH],dramatic cytotoxicity,
